From US11596639B2, “Substituted indole Mcl-1 inhibitors” (Vanderbilt University, priority 2016, dated 2023)
Read-outs that look alike come from different tables or passages of the source.

Experiments:
[1] = tested on: H929 human cancer cell lines; assay: Cellular viability / proliferation (Cell TiterGlo, 72 h); assay type: cell-based
In short: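 Plating is at 1,000 cells/well in 10% FBS medium; after 24 h, compound is added as a 2-fold series starting at 50 μM with under 1% DMSO.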

Mcl-1 = Mcl-1 (Homo sapiens (Human), UniProt Q07820); assay: TR-FRET binding assay, FITC-Bak peptide and MBP-tagged Mcl-1; details: read-out: Ki for Inhibition of Mcl-1 by TR-FRET assay
Description: Compounds are diluted in DMSO in a 16-point, semilog serial dilution scheme. […] The plate was mixed and incubated for 3 hours at room temperature. […] TR-FRET signal is plotted and IC50 and Ki values are calculated in the same manner as the fluorescence polarization anisotropy based competition assays.

[2] = Homo sapiens, NCI-H929, 72 h, read-out: GI50 on cellular proliferation of H929 human cancer cell lines, H929 cells, 72 h, Cell TiterGlo, 10% FBS
[3] = read-out: GI50 on cellular proliferation of H929 human cancer cell lines, H929 cells, 72 h, Cell TiterGlo, 10% FBS

Sequence of Mcl-1 (Q07820 172-327): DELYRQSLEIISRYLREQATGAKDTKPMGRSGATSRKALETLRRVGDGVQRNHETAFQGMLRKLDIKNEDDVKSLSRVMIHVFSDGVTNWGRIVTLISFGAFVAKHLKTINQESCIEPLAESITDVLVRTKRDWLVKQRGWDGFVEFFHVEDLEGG

| SMILES | GI50 [1, 2] [nM] | Ki (Mcl-1) [nM] | GI50 [1, 3] [nM] | GI50 ([1]; H929 cells, 72 h, Cell TiterGlo, 10% FBS, read-out: GI50 on cellular proliferation of H929 human cancer cell lines) [nM] |
| --- | --- | --- | --- | --- |
| Cc1cc(OCCCc2c3n(c4c(-c5c(C)nn(C)c5C)c(Cl)ccc24)[C@H](C)CN(c2cn(C)c4ccc(-c5ncn(-c6ccccn6)n5)cc24)C3=O)cc(C)c1Cl [Example 647, (R)-7-Chloro-10-(3-(4-chloro-3,5-dimethylphenoxy)propyl)-4-methyl-2-(1-methyl-5-(1-(pyridin-2-yl)-1H-1,2,4-triazol-3-yl)-1H-indol-3-yl)-6-(1,3,5-trimethyl-1H-pyrazol-4-yl)-3,4-dihydropyrazino[1,2-a]indol-1(2H)-one] | 1100 | 0.32 | – | – |
| Cc1cc(OCCCc2c3n(c4c(-c5c(C)nn(C)c5C)c(Cl)ccc24)[C@H](C)CN(c2cn(CCN4CCOCC4)c4ccc(-c5ncn(-c6ncccn6)n5)cc24)C3=O)cc(C)c1Cl [Example 720, (R)-7-Chloro-10-(3-(4-chloro-3,5-dimethylphenoxy)propyl)-4-methyl-2-(1-(2-morpholinoethyl)-5-(1-(pyrimidin-2-yl)-1H-1,2,4-triazol-3-yl)-1H-indol-3-yl)-6-(1,3,5-trimethyl-1H-pyrazol-4-yl)-3,4-dihydropyrazino[1,2-a]indol-1(2H)-one] | 220 | 0.51 | – | – |
| Cc1cc(OCCCc2c3n(c4c(-c5c(C)nn(C)c5C)c(Cl)ccc24)[C@H](C)CN(c2cn(CCN4CCN(C)CC4)c4ccc(-c5ncccn5)cc24)C3=O)cc(C)c1Cl [Example 568, (R)-7-Chloro-10-(3-(4-chloro-3,5-dimethylphenoxy)propyl)-4-methyl-2-(1-(2-(4-methylpiperazin-1-yl)ethyl)-5-(pyrimidin-2-yl)-1H-indol-3-yl)-6-(1,3,5-trimethyl-1H-pyrazol-4-yl)-3,4-dihydropyrazino[1,2-a]indol-1(2H)-one] | 280 | 1.8 | – | – |
| Cc1cc(OCCCc2c3n(c4c(-c5c(C)nn(C)c5C)c(Cl)ccc24)[C@H](C)CN(c2cn(CCN4CCCC4)c4ccc(-c5ncccn5)cc24)C3=O)cc(C)c1Cl [Example 567, (R)-7-Chloro-10-(3-(4-chloro-3,5-dimethylphenoxy)propyl)-4-methyl-2-(5-(pyrimidin-2-yl)-1-(2-(pyrrolidin-1-yl)ethyl)-1H-indol-3-yl)-6-(1,3,5-trimethyl-1H-pyrazol-4-yl)-3,4-dihydropyrazino[1,2-a]indol-1(2H)-one] | 930 | 9.6 | – | – |
| Cc1cccc(Cn2cc(C(=O)O)c3cccc(N4C[C@@H](C)n5c(c(CCCOc6cc(C)c(Cl)c(C)c6)c6ccc(Cl)c(-c7c(C)nn(C)c7C)c65)C4=O)c32)n1 (single isomer, unassigned) [Example 494] | – | 0.3 | 450 | – |
| Cc1cc(OCCCc2c3n(c4c(-c5c(C)nn(C)c5C)c(Cl)ccc24)[C@H](C)CN(c2cn(C)c4ccc(-n5nccn5)cc24)C3=O)cc(C)c1Cl [Example 662, (R)-7-Chloro-10-(3-(4-chloro-3,5-dimethylphenoxy)propyl)-4-methyl-2-(1-methyl-5-(2H-1,2,3-triazol-2-yl)-1H-indol-3-yl)-6-(1,3,5-trimethyl-1H-pyrazol-4-yl)-3,4-dihydropyrazino[1,2-a]indol-1(2H)-one] | 1900 | 0.93 | – | – |
| Cc1cc(OCCCc2c3n(c4c(-c5c(C)nn(C)c5C)c(Cl)ccc24)[C@H](C)CN(c2cn(CCN4CCCCC4)c4ccc(C(=O)O)cc24)C3=O)cc(C)c1Cl [Example 543, (R)-3-(7-Chloro-10-(3-(4-chloro-3,5-dimethylphenoxy)propyl)-4-methyl-1-oxo-6-(1,3,5-trimethyl-1H-pyrazol-4-yl)-3,4-dihydropyrazino[1,2-a]indol-2(1H)-yl)-1-(2-(piperidin-1-yl)ethyl)-1H-indole-5-carboxylic acid] | 1800 | 2.9 | – | – |
| Cc1cc(N2C[C@@H](C)n3c(c(CCCOc4cc(C)c(Cl)c(C)c4)c4ccc(Cl)c(-c5c(C)nn(C)c5C)c43)C2=O)c2c(c1)cc(C(=O)O)n2Cc1cc(C#N)ccn1 [Example 556, (R)-7-(7-chloro-10-(3-(4-chloro-3,5-dimethylphenoxy)propyl)-4-methyl-1-oxo-6-(1,3,5-trimethyl-1H-pyrazol-4-yl)-3,4-dihydropyrazino[1,2-a]indol-2(1H)-yl)-1-((4-cyanopyridin-2-yl)methyl)-5-methyl-1H-indole-2-carboxylic acid] | 280 | < 0.2 | – | – |
| Cc1cc(OCCCc2c3n(c4c(-c5c(C)nc(CN6CCN(C)CC6)nc5C)c(Cl)ccc24)[C@H](C)CN(c2cn(C)c4ccc(-c5ncn(C)n5)cc24)C3=O)cc(C)c1Cl [Example 502, (R)-7-chloro-10-(3-(4-chloro-3,5-dimethylphenoxy)propyl)-6-(4,6-dimethyl-2-((4-methylpiperazin-1-yl)methyl)pyrimidin-5-yl)-4-methyl-2-(1-methyl-5-(1-methyl-1H-1,2,4-triazol-3-yl)-1H-indol-3-yl)-3,4-dihydropyrazino[1,2-a]indol-1(2H)-one] | < 200 | 2.9 | – | – |
| COCCOc1cc(N2C[C@@H](C)n3c(c(CCCOc4cc(C)c(Cl)c(C)c4)c4ccc(Cl)c(-c5c(C)n[nH]c5C)c43)C2=O)c2c(c1)cc(C(=O)O)n2C [Example 716, (R)-7-(7-chloro-10-(3-(4-chloro-3,5-dimethylphenoxy)propyl)-6-(3,5-dimethyl-1H-pyrazol-4-yl)-4-methyl-1-oxo-3,4-dihydropyrazino[1,2-a]indol-2(1H)-yl)-5-(2-methoxyethoxy)-1-methyl-1H-indole-2-carboxylic acid] | 550 | < 0.2 | – | – |
| COCCn1cc(C(=O)O)c2cc(OC)cc(N3C[C@@H](C)n4c(c(CCCOc5cc(C)c(Cl)c(C)c5)c5ccc(Cl)c(-c6c(C)nn(C)c6C)c54)C3=O)c21 (single isomer, unassigned) [Example 673] | – | 0.31 | 230 | – |
| Cc1cc(OCCCc2c3n(c4c(-c5c(C)cc(O)cc5C)c(Cl)ccc24)[C@H](C)CNC3=O)cc(C)c1Cl [Example 488, (R)-7-chloro-10-(3-(4-chloro-3,5-dimethylphenoxy)propyl)-6-(4-hydroxy-2,6-dimethylphenyl)-4-methyl-3,4-dihydropyrazino[1,2-a]indol-1(2H)-one] | 8700 | 39 | – | – |
| Cc1cc(OCCCc2c3n(c4c(-c5c(C)nn(C)c5C)c(Cl)ccc24)[C@H](C)CN(c2cn(CCN4CCCC4)c4ccc(C(=O)O)cc24)C3=O)cc(C)c1Cl [Example 511, (R)-3-(7-Chloro-10-(3-(4-chloro-3,5-dimethylphenoxy)propyl)-4-methyl-1-oxo-6-(1,3,5-trimethyl-1H-pyrazol-4-yl)-3,4-dihydropyrazino[1,2-a]indol-2(1H)-yl)-1-(2-(pyrrolidin-1-yl)ethyl)-1H-indole-5-carboxylic acid] | 300 | < 0.2 | – | – |
| Cc1cc(OCCCc2c3n(c4c(-c5c(C)nn(C)c5C)c(Cl)ccc24)[C@H](C)CN(c2cc(CN4CCCC4)cc4c(C(=O)O)cn(C)c24)C3=O)cc(C)c1Cl [Example 550, (R)-7-(7-chloro-10-(3-(4-chloro-3,5-dimethylphenoxy)propyl)-4-methyl-t-oxo-6-(1,3,5-trimethyl-1H-pyrazol-4-yl)-3,4-dihydropyrazino[1,2-a]indol-2(1H)-yl)-1-methyl-5-(pyrrolidin-1-ylmethyl)-1H-indole-3-carboxylic acid] | – | 0.52 | – | 1200 |
| Cc1cc(OCCCc2c3n(c4c(-c5c(C)nn(C)c5C)c(Cl)ccc24)[C@H](C)CN(c2cc(COCCN(C)C)cc4cc(C(=O)O)n(C)c24)C3=O)cc(C)c1Cl [Example 614, (R)-7-(7-chloro-10-(3-(4-chloro-3,5-dimethylphenoxy)propyl)-4-methyl-1-oxo-6-(1,3,5-trimethyl-1H-pyrazol-4-yl)-3,4-dihydropyrazino[1,2-a]indol-2(1H)-yl)-5-((2-(dimethylamino)ethoxy)methyl)-1-methyl-1H-indole-2-carboxylic acid] | 690 | < 0.2 | – | – |
| Cc1cc(OCCCc2c3n(c4c(-c5c(C)nn(C)c5C)c(Cl)ccc24)[C@H](C)CN(c2cc(OC4CCN(C)CC4)cc4cc(C(=O)O)n(C)c24)C3=O)cc(C)c1Cl [Example 519, (R)-7-(7-chloro-10-(3-(4-chloro-3,5-dimethylphenoxy)propyl)-4-methyl-1-oxo-6-(1,3,5-trimethyl-1H-pyrazol-4-yl)-3,4-dihydropyrazino[1,2-a]indol-2(1H)-yl)-1-methyl-5-((1-methylpiperidin-4-yl)oxy)-1H-indole-2-carboxylic acid] | 990 | 0.46 | – | – |
| Cc1cc(OCCCc2c3n(c4c(-c5c(C)nn(C)c5C)c(Cl)ccc24)[C@H](C)CN(c2cn(Cc4ccc(F)c(F)c4)c4ccc(C(=O)O)cc24)C3=O)cc(C)c1Cl [Example 645, (R)-3-(7-chloro-10-(3-(4-chloro-3,5-dimethylphenoxy)propyl)-4-methyl-1-oxo-6-(1,3,5-trimethyl-1H-pyrazol-4-yl)-3,4-dihydropyrazino[1,2-a]indol-2(1H)-yl)-1-(3,4-difluorobenzyl)-1H-indole-5-carboxylic acid] | 3700 | 3.3 | – | – |
| COc1cc(N2C[C@@H](C)n3c(c(CCCOc4cc(C)c(Cl)c(C)c4)c4ccc(Cl)c(-c5c(C)nn(C)c5C)c43)C2=O)c2c(c1)cc(C(=O)O)n2Cc1ccccn1 [Example 538, (R)-7-(7-Chloro-10-(3-(4-chloro-3,5-dimethylphenoxy)propyl)-4-methyl-1-oxo-6-(1,3,5-trimethyl-1H-pyrazol-4-yl)-3,4-dihydropyrazino[1,2-a]indol-2(1H)-yl)-5-methoxy-1-(pyridin-2-ylmethyl)-1H-indole-2-carboxylic acid] | < 200 | < 0.2 | – | – |
